Measured values published in patent US11806344B2, “Pharmaceutical composition comprising mineralocorticoid receptor antagonist and use thereof” (priority 2016, dated 2023).
“Also recorded” adds a separate entry of the source. Where two headings read alike, the source gives them in different places.

Assays:
[1] = Effect of surfactants on absorption in SD rats (Example 4-1); settings: rat, plasma, oral, 1 mg/kg
Method: Blood collection: The animals were fixed and had their tails warmed in a water bath 10 min prior to blood collection; about 100 μL of blood was collected through the tail vein for each animal and put into an anticoagulation tube containing hepatin; the blood samples were subject to centrifugation at 8000 rpm for 6 min at 4° C. to obtain plasma samples, which had to be obtained within 30 minutes after blood was collected; the plasma samples were stored in a freezer at −80° C. for future tests.
Sample analysis: 50 μL of each plasma sample from the freezer was transferred to a centrifugal tube; 100 μL of water and 400 μL of MTBE standard solution (50 ng/mL) were added into the tube and well mixed with the plasma; the obtained mixture was mixed for 10 minutes using a vortex mixer and then subject to centrifugation for 5 minutes (12000 r/min); 300 μL of the supernatant was transferred to another centrifugal tube and blown dry with nitrogen gas; the resultant substance was dissolved in 200 μL of a solution consisting of methanol and water at a ratio of 1:1, of which 20 μL was used for the LC-MS/MS measurement.
Data processing: the compound concentration was output by Analyst 1.6.1 (AB Sciex); the means, standard deviations, and variation coefficients were calculated using Microsoft Excel (no calculation needed if these parameters were directed output by Analyst 1.6.1), and pharmacokinetic parameters were determined using the NCA analysis object in Pharsight Phoenix 6.3.

[2] = Absorption of capsules of Capsule formulation 5 in Beagle dogs (Example 3-4); type: in vivo; settings: dog, plasma; mean of four Beagle dogs, oral, 2.67 mg/kg; read-out: BA % (Mean, average bioavailability)
Method: Capsule of Capsule formulation 5 as prepared in Example 2, 10 mg of Compound I per capsule.
Solutions: 5% DMSO+95% (6% HP-β-CD solution)
Animals: Four Beagle Dogs.
(1) Administration of capsules. All animals fasted for 12 h or longer before drug administration, and food was supplied 4 h after drug administration, with always ad libitum access to water. Beagle dogs were orally given the capsule of Capsule formulation 5 as prepared in Example 2 (two capsules for each Beagle, 10 mg of Compound I per capsule) in a single dose, and 200 μL of blood was collected for each animal, via the small saphenous vein, immediately prior to the administration (0 h) and 0.17 h, 0.50 h, 0.75 h, 1.0 h, 2.0 h, 4.0 h, 6.0 h, 8.0 h, 12 h and 24 h after the administration. The collected blood was stored in a dry tube with heparin (normal saline containing 0.1% heparin sodium). (2) Plasma preparation. The whole blood samples collected in step (1) were subject to centrifugation at a low speed (8000 r/min, 6 min, 4° C.) to separate the plasma (the whole blood was stored in a mobile freezer at about 0 to 4° C., and plasma had to be separated within 30 minutes after the blood collection), and the plasma was kept in dark in a freezer at −70° C. (or lower) for future analysis.

SD rats = experiment: 13-week toxicity and pharmacokinetic study in SD rats with 4-week recovery (Example 5); type: in vivo; settings: 13 weeks
Method: (§1) Sample to test: Solid dispersion of Compound I (Compound I:PVPK30=1:8 (w/w))
(§2) Animals: SD Rats, SPF Level.
(§3) Two hundred and twenty SD rats were used in the studies. Three groups, i.e., high dose group, intermediate dose group and low dose group, were administered with Compound I with following doses, 20 males and 20 females for each group. In specific, male animals were given the suspension at the doses of 3, 9 and 30 mg/kg/day, respectively, while the females were administered at the doses of 1, 3, and 10 mg/kg/day, respectively. The animals in the control group, 20 males and 20 females, were given purified water. All animals fasted overnight before blood collections and anatomical examinations.
(§4) In addition, for the pharmacokinetic study, 9 males and 9 females were assigned into the administration group, while 3 males and 3 females were for the control group.

[3] = as above; type: in vivo; settings: rat, in vivo; for AUC(0-t): SD, po, read-out: AUC0-24 h; for NOAEL at 13 weeks: oral, read-out: NOAEL (no observed adverse effect level)
Method: as §1, §2, §3, §4

[4] = Safety, tolerability and pharmacokinetics in healthy subjects, single dose (Example 7); type: in vivo, human; settings: human, plasma, oral
Method: (§5) Five groups of healthy subjects were given capsules at doses of 0.5 mg (1 capsule, 0.5 mg of Compound I per capsule), 1.0 mg (2 capsules, 0.5 mg of Compound I per capsule), 2.5 mg (1 capsule, 2.5 mg of Compound I per capsule), 10 mg (1 capsule, 10 mg of Compound I per capsule), and 30 mg (3 capsules, 10 mg of Compound I per capsule), each group containing 8 subjects. The drug administration was done only once.
(§6) The capsules mentioned above were the ones prepared in Example 2, i.e., the capsules of Capsule formulation 3 (0.5 mg of Compound I per capsule), Capsule formulation 4 (2.5 mg of Compound I per capsule), and Capsule formulation 5 (10 mg of Compound I per capsule).
(§7) Plasma samples were collected to measure plasma drug concentration, and the pharmacokinetic parameters were analyzed using the non-compartment model. Serum samples were collected to measure serum potassium levels.

healthy subjects = experiment: as above; type: in vivo, human; settings: single dose 0.5 to 30 mg/day
Method: as §5, §6, §7

Q: What does the source list for `N#Cc1ccc(N2N=C3c4ccc(C(=O)N5CCC(O)CC5)nc4CC[C@@H]3[C@@H]2C2CCCC2)cc1Cl` [Compound I, 2-chloro-4-[(3S,3aR)-3-cyclopentyl-7-(4-hydroxylpiperidine-1-carbonyl)-3,3a,4,5-tetrahydro-2H-pyrazolo[3,4-f]quinolin-2-yl]benzonitrile]?
A: bioavailability [1]: 64.7%; bioavailability [2]: 56.5%; serum potassium level (observation) (SD rats; SD rats, high dose/NOAEL (male 30, female 10 mg/kg/day)): no obvious abnormal serum potassium level was observed; also recorded: serum potassium level was not elevated; K+ (Mean ± SD) (SD rats; female SD rats, 1 mg/kg/day intragastric): 4.4 ± 0.4 mmol/L; K+ (Mean ± SD) (SD rats; female SD rats, 3 mg/kg/day intragastric): 4.4 ± 0.3 mmol/L; K+ (Mean ± SD) (SD rats; female SD rats, 10 mg/kg/day intragastric): 4.5 ± 0.2 mmol/L; K+ (Mean ± SD) (SD rats; male SD rats, 3 mg/kg/day intragastric): 5.0 ± 0.3 mmol/L; K+ (Mean ± SD) (SD rats; male SD rats, 9 mg/kg/day intragastric): 5.0 ± 0.3 mmol/L; K+ (Mean ± SD) (SD rats; male SD rats, 30 mg/kg/day intragastric): 5.1 ± 0.2 mmol/L; side effects (observation) (SD rats; male SD rats, high dose 30 mg/kg/day): No obvious side effect was observed; AUC(0-t) ([3]; female, 1 mg/kg/day, female SD rats, 1 mg/kg/day intragastric, 13 weeks): 4080 ng·h/mL; AUC(0-t) ([3]; female, 3 mg/kg/day, female SD rats, 3 mg/kg/day intragastric, 13 weeks): 15500 ng·h/mL; AUC(0-t) ([3]; female, 10 mg/kg/day, female SD rats, 10 mg/kg/day intragastric, 13 weeks): 43600 ng·h/mL; AUC(0-t) ([3]; male, 3 mg/kg/day, male SD rats, 3 mg/kg/day intragastric, 13 weeks): 5430 ng·h/mL; AUC(0-t) ([3]; male, 9 mg/kg/day, male SD rats, 9 mg/kg/day intragastric, 13 weeks): 16500 ng·h/mL; AUC(0-t) ([3]; male, 30 mg/kg/day, male SD rats, 30 mg/kg/day intragastric, 13 weeks (steady-state)): 49900 ng·h/mL; NOAEL at 13 weeks ([3]; female SD rats, 13 weeks): 10 mg/kg/day; NOAEL at 13 weeks ([3]; male SD rats, 13 weeks): 30 mg/kg/day; half-life ([4]; single dose 0.5 mg): 2.56 days; AUC(0-t) ([4]; single dose 0.5 mg capsule, read-out: AUC0-24): 162 ng·h/mL; half-life ([4]; single dose 1.0 mg): 2.54 days; AUC(0-t) ([4]; single dose 1.0 mg capsules, read-out: AUC0-24): 397 ng·h/mL; half-life ([4]; single dose 2.5 mg): 2.22 days; AUC(0-t) ([4]; single dose 2.5 mg capsule, read-out: AUC0-24): 640 ng·h/mL; half-life ([4]; single dose 10 mg): 2.2 days; AUC(0-t) ([4]; single dose 10 mg capsule, read-out: AUC0-24): 3080 ng·h/mL; half-life ([4]; single dose 30 mg): 3.08 days; AUC(0-t) ([4]; single dose 30 mg capsules, read-out: AUC0-24): 5020 ng·h/mL; half-life ([4]; single dose 0.5 to 30 mg/day): ~2.5 days; AUC(0-t) ([4]; single dose 0.5 to 30 mg/day, read-out: AUC0-24 (range over dose groups)): 162 to 5020 ng·h/mL; serum potassium level (observation) (healthy subjects): no elevated serum potassium level was observed
